# Experimental data from patent publication US10702518B2, “TAF1 inhibitors for the therapy of cancer” (CeMM—Forschungszentrum für Molekulare Medizin GmbH, priority 2016, dated 2020).
# What was measured:
# TAF1(BD2) [1] = biological target: T1, TAF1(BD2) (Homo sapiens, UniProt P21675); experiment: BROMOscan primary screen, binding to TAF1(BD2); details: for inhibition at 1 µM: read-out: TAF1_BD2 (% inhibition at 1 μM); for TAF1_BD2 (% inhibition at 1 μM): 1 μM compound, DMSO = 0%, 30 μM BI2536 = 100% inhibition
# T1 construct: the second bromodomain of TAF1 (TAF1 (2)); purchased DiscoverX Corporation (contract assay); host or cells: T7 phage in E. coli host derived from BL21
# T1 sequence (P21675 1519-1628 limits assumed): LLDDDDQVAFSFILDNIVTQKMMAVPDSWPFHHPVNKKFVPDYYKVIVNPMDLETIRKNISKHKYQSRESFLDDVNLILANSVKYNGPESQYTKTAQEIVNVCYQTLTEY
# Method: The binding of these compounds to TAF1 was tested by DiscoverX Corporation (Fremont, Calif., USA) in a primary screen using the BROMOscan assay, which is a ligand binding site-directed competition assay that allows to quantitatively measure interactions between test compounds and bromodomains (see Fabian et al., 2005 for an explanation of the principle of this assay), according to the following protocol:
# (§1) Bromodomain assays: T7 phage strains displaying bromodomains were grown in parallel in 24-well blocks in an E. coli host derived from the BL21 strain. E. coli were grown to log-phase and infected with T7 phage from a frozen stock (multiplicity of infection=0.4) and incubated with shaking at 32° C. until lysis (90-150 minutes). The lysates were centrifuged (5,000×g) and filtered (0.2 μm) to remove cell debris. Streptavidin-coated magnetic beads were treated with biotinylated small molecule or acetylated peptide ligands for 30 minutes at room temperature to generate affinity resins for bromodomain assays. The liganded beads were blocked with excess biotin and washed with blocking buffer (SeaBlock (Pierce), 1% BSA, 0.05% Tween 20, 1 mM DTT) to remove unbound ligand and to reduce non-specific phage binding. […] Test compounds were prepared as 1000× stocks in 100% DMSO and subsequently diluted 1:25 in monoethylene glycol (MEG). The compounds were then diluted directly into the assays such that the final concentrations of DMSO and MEG were 0.1% and 2.4%, respectively. All reactions were performed in polypropylene 384-well plates in a final volume of 0.02 ml. […] The bromodomain concentration in the eluates was measured by qPCR.
# REDS3 cells = experiment: RFP reporter expression in REDS3 cells (live cell imaging); type: cell-based, human; details: for confirmed screening hit (RFP induction in REDS3 screen): library screen of 89,355 small molecules; for RFP expression in REDS3 cells: single agent
# Method: Cells were seeded on clear flat bottom 96-well or 384-well plates (Corning) and treated with the indicated compounds for the specified conditions. Live cell imaging pictures were taken with the Operetta High Content Screening System (PerkinElmer), 20× objective and non-confocal mode.
# Only RFP-positive nuclei were detected and counted.
# The increase of RFP fluorescence, detected with the Operetta High Content Screening System (PerkinElmer), 20× objective and non-confocal mode, was used as read-out.
# Briefly, the screening was divided in three parts called respectively 1) primary screening, 2) follow up and 3) validation. During the primary screening REDS3 cells were treated with 10 μM of every compound, and live cell imaging pictures were taken in order to assess their ability to induce RFP expression 24 hours later.
# KBM7 cells = experiment: CellTiterGlo viability of control and TAF1 downregulated KBM7 cells; details: shRNA TAF1 vs control, 96 hours
# [2] = tested on: c-MYC expression in WT-KBM7; experiment: c-MYC expression by RT-PCR in WT-KBM7; type: cell-based, human; details: 1, 10 and 20 μM, 24 hours
# Method: (c) Percentage of c-MYC expression in WT-KBM7 treated with the selected compounds, assessed by RT-PCR. 1, 10 and 20 μM of each compound were used to treat cells for 24 hours; DMSO was used as negative control and (S)-JQ1 as positive control. Three biological replicates were performed (mean±STD).
# RNA extraction was performed with TRIzol Reagent (Life Technologies) according to the manufacturer's protocol and Reverse Transcription (RT) was performed using the High Capacity cDNA Reverse Transcription Kit (Applied Biosystems) following the standard protocol.
# QPCR was performed using the Power SYBR Green Master mix (Invitrogen) as described in the manufacturer's protocol.
# Real-time amplification results were normalized to the endogenous housekeeping genes Actin or GAPDH. The relative quantities were calculated using the comparative CT (Cycle Threshold) Method (ΔΔCT Method).
# THP1 cells [3] = experiment: Cell cycle assay in THP1 cells; details: 48 hours
# Method: (e) Quantification of cells in S-phase by staining the nuclei with PI and analyzing DNA content by FACS. […] Three different biological replicates were performed and 30,000 cells were analysed each time (mean±STD).
# For cell cycle analysis, cells were fixed with 70% ethanol for 24 hours, washed with PBS/0.1%-Tween and incubated with RNase for 20 minutes. Nuclei were stained with 5 μg/ml PI (propidium iodide, Sigma) for 10 minutes prior to FACS analysis (BD FACSCalibur Flow Cytometer).
# THP1 cells [4] = experiment: AnnexinV apoptosis assay in THP1 cells; details: 72 hours
# Method: (f) Quantification of AnnexinV positive cells from immunofluorescence images. […] At least 3 biological replicates were performed and more than 1,500 cells were quantified for each point (mean±STD).
# Apoptotic cells were detected using the Annexin V-FITC Apoptosis detection kit (Abcam) according to the manufacturer's instruction. Apoptosis quantification was performed with the Harmony software (PerkinElmer) for nuclei and cytoplasm detection and analysis, adapted for the nucleus diameter range and cell shape of the specific cell line used.
# TAF1 (2) = biological target: T2, TAF1 (2) (Homo sapiens, UniProt P21675); experiment: BromoScan / BromoELECT / BromoKdELECT, TAF1 (2); type: binding; details: 10 μM; for binding to TAF1 (2): BromoScan/BromoELECT
# T2 construct: the second bromodomain of TAF1 (TAF1 (2)); purchased DiscoverX Corporation (contract assay); host or cells: T7 phage in E. coli host derived from BL21
# T2 sequence (P21675 1519-1628 limits assumed): T1 sequence (P21675 1519-1628 limits assumed)
# Method: (§2) Bubbles indicate the percentage of inhibition of the binding of the analyzed bromodomains to an acetylated substrate. […] (g) BromoKdELECT assay for CeMMEC1 against TAF1 (2). […] (i) Docking of CeMMEC1 to the second bromodomain of TAF1. 3D model (top panel) and 2D ligand interaction diagram (bottom panel). Red dots in the 3D model indicate water molecules.
# (§3) (c) not used (d) KinomeScan profile for CeMMEC1 (10 μM). Bubbles indicate the percentage of inhibition of the binding of the analyzed kinase to an immobilized ligand.
# TAF1(BD2) [5] = biological target: T1, TAF1(BD2); experiment: BROMOscan binding constant determination for TAF1(BD2); details: 11-point 3-fold dilution series, read-out: TAF1_BD2 (IC50 μM)
# Method: as §1, with “100% DMSO. Kds were determined using an 11-point 3-fold compound dilution series with one” for “100%”, “control point. […]” for “and subsequently diluted 1:25 in monoethylene glycol (MEG).”, “concentration” for “concentrations”, “was 0.09%.” for “and MEG were 0.1% and 2.4%, respectively.”, “reactions” for “reactions were”, “plates. Each was” for “plates in”
# Compound handling: An 11-point 3-fold serial dilution of each test compound was prepared in 100% DMSO at 1000× final test concentration. […] The compounds were then diluted directly into the assays such that the final concentration of DMSO was 0.09%. Most Kds were determined using a compound top concentration=10,000 nM. If the initial Kd determined was <0.169 nM (the lowest concentration tested), the measurement was repeated with a serial dilution starting at a lower top concentration.
# Binding constants (Kds) were calculated with a standard dose-response curve using the Hill equation: […]
# The Hill Slope was set to −1. Curves were fitted using a non-linear least square fit with the Levenberg-Marquardt algorithm.
# The results thus obtained are reported in the following table as IC50 values [μM] for TAF1(BD2).
# CREBBP = CREBBP (Homo sapiens, UniProt Q92793); experiment: BromoScan / BromoELECT / BromoKdELECT, CREBBP; type: binding; details: BromoScan/BromoELECT, 10 μM
# Method: as §2, §3
# THP1 cells [6] = experiment: Cell viability of THP1 cells, combination with (S)-JQ1; type: cell-based, human
# H23 cells = experiment: Cell viability of H23 cells, combination with (S)-JQ1; type: cell-based
# Chain of CREBBP (Q92793 1085-1192 limits assumed): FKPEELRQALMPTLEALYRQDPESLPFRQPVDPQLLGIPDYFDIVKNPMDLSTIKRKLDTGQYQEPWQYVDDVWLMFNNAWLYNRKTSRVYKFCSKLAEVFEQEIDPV
compound,measurement,setting,value
Cn1c(=O)ccc2c(C(=O)Nc3ccc4c(c3)OCCO4)cccc21 [Compound 4-24],inhibition at 1 µM,TAF1(BD2) [1],58%
COc1ccc(CCc2nc3cc(-c4c(C)noc4C)ccc3n2C[C@H](C)N2CCOCC2)cc1Cl [CBP30],increase of RFP-positive cells compared to DMSO treated cells,"REDS3 cells; 10 μM, 24 hours",1.5 fold
COc1cc(OC)cc(C(=O)Nc2cccc3c2ccc(=O)n3C)c1 [Compound 4-28],inhibition at 1 µM,TAF1(BD2) [1],50%
COc1ccc(C(=O)Nc2cccc3c(=O)n(C)ccc23)cc1 [Compound 4-16],inhibition at 1 µM,TAF1(BD2) [1],34%
Cn1c(=O)cc(C(=O)Nc2ccc(OC(F)(F)F)cc2)c2ccccc21 [Compound 4-3],inhibition at 1 µM,TAF1(BD2) [1],20%
Cn1ccc(C(=O)Nc2ccc(OC(F)(F)F)cc2)cc1=O [Compound 4-13],inhibition at 1 µM,TAF1(BD2) [1],3%
Cc1cnc(Nc2ccc(OCCN3CCCC3)cc2)nc1Nc1cccc(S(=O)(=O)NC(C)(C)C)c1 [TG-101348],confirmed screening hit (RFP induction in REDS3 screen),REDS3 cells; 24 hours,part of this group
Cn1c2c(ccc1=O)C(NC(=O)c1ccc(OC(F)(F)F)cc1)CCC2 (stereo not shown) [Compound 4-32],inhibition at 1 µM,TAF1(BD2) [1],10%
"CCCCCCCCCCCCCC(=O)O[C@@H]1[C@@H](C)[C@@]2(O)[C@@H](C=C(CO)C[C@]3(O)C(=O)C(C)=C[C@@H]23)[C@@H]2C(C)(C)[C@]12OC(C)=O [PMA, phorbol myristate acetate]",RFP expression in REDS3 cells,REDS3 cells,No increase of RFP-positive nuclei was observed
CCC(=O)N1CCOc2c(cc(-c3ccc(OC)c(OC)c3)cc2OC[C@H]2CCCN(C)C2)C1 [I-CBP112],RFP expression in REDS3 cells,REDS3 cells,No RFP expression was detected
Cn1c2c(ccc1=O)C(NC(=O)c1ccc3c(c1)OCCO3)CCC2 (stereo not shown) [Compound 4-29],inhibition at 1 µM,TAF1(BD2) [1],32%
COc1cc(OC)c2c(=O)[nH]c(-c3cc(C)c(OCCO)c(C)c3)nc2c1 [RVX208],confirmed screening hit (RFP induction in REDS3 screen),REDS3 cells; 24 hours,part of this group
Cc1nnc2ccc(NCCC3=CCCCC3)nn12 [CeMMEC2],cell viability with TAF1 downregulation,KBM7 cells,synergism
same,c-MYC expression,[2],capable of reducing the expression of this oncogene in a dose-dependent manner
same,number of cells in S-phase,THP1 cells [3],clear and dose-dependent decrease of the number of cells in S-phase
same,apoptosis (AnnexinV staining),THP1 cells [4],induced apoptosis
COc1cc(NC(=O)c2ccn(C)c(=O)c2)cc(OC)c1 [Compound 4-14],inhibition at 1 µM,TAF1(BD2) [1],20%
Cn1ccc2c(NC(=O)c3ccc4c(c3)OCCO4)cccc2c1=O [Compound 30],binding to TAF1 (2),TAF1 (2),retaining TAF1 activity
same,RFP expression in REDS3 cells in combination with (S)-JQ1,REDS3 cells,further boosted RFP expression beyond the increase in single treatments
same,RFP expression in REDS3 cells,REDS3 cells,comparable induction of RFP expression in REDS3 cells
same,IC50,TAF1(BD2) [5],4 µM
same,binding to CREBBP,CREBBP,lost all affinity to CREBBP
COc1ccccc1S(=O)(=O)Nc1ccc2c(c1)CN(C)C(=O)N2 [PFI1],confirmed screening hit (RFP induction in REDS3 screen),REDS3 cells; 24 hours,part of this group
Cn1c(=O)cc(C(=O)Nc2ccc3c(c2)OCCO3)c2ccccc21 [Compound 29],synergy with (S)-JQ1 (Bliss independence test),THP1 cells [6],the most effective
same,"selectivity among BRD4 (1), BRD9, CREBBP, EP300 and TAF1 (2)",TAF1 (2); BromoELECT,high selectivity for the TAF1 (2) bromodomain
same,binding to TAF1 (2),TAF1 (2),retaining TAF1 activity
same,synergy with (S)-JQ1 (Bliss independence test),H23 cells,the most effective
same,RFP expression in REDS3 cells in combination with (S)-JQ1,REDS3 cells,further boosted RFP expression beyond the increase in single treatments
same,RFP expression in REDS3 cells,REDS3 cells,comparable induction of RFP expression in REDS3 cells
same,IC50,TAF1(BD2) [5],3.1 µM
same,binding to CREBBP,CREBBP,lost all affinity to CREBBP
Cc1sc2c(c1C)C(c1ccc(Cl)cc1)=N[C@@H](CC(=O)Nc1ccc(O)cc1)c1nnc(C)n1-2 [OXT015],confirmed screening hit (RFP induction in REDS3 screen),REDS3 cells; 24 hours,part of this group
COc1cc(OC)cc(C(=O)NC2CCCc3c2ccc(=O)n3C)c1 (stereo not shown) [Compound 4-33],inhibition at 1 µM,TAF1(BD2) [1],11%
phytohemagglutinin [PHA],RFP expression in REDS3 cells,REDS3 cells,No increase of RFP-positive nuclei was observed
COc1ccc(C(=O)Nc2cccc3c2ccc(=O)n3C)cc1 [Compound 4-26],IC50,TAF1(BD2) [5],0.056 µM
same,TAF1_BD2 (% inhibition at 1 μM),TAF1(BD2) [1],82%
Cn1ccc2c(NC(=O)c3ccc(OC(F)(F)F)cc3)cccc2c1=O [Compound 4-17],inhibition at 1 µM,TAF1(BD2) [1],11%
Cn1ccc(C(=O)Nc2ccc3c(c2)OCCO3)cc1=O [Compound 4-10],inhibition at 1 µM,TAF1(BD2) [1],3%
Cn1c(=O)ccc2c(NC(=O)c3ccc4c(c3)CCCO4)cccc21 [Compound 4-25],TAF1_BD2 (% inhibition at 1 μM),TAF1(BD2) [1],4%
COc1cc(NC(=O)c2cc(=O)n(C)c3ccccc23)cc(OC)c1 [Compound 4-4],inhibition at 1 µM,TAF1(BD2) [1],48%
COc1ccc(C(=O)NC2CCCc3c2ccc(=O)n3C)cc1 (stereo not shown) [Compound 4-31],inhibition at 1 µM,TAF1(BD2) [1],34%
CC[C@@H]1C(=O)N(C)c2cnc(Nc3ccc(C(=O)NC4CCN(C)CC4)cc3OC)nc2N1C1CCCC1 [BI-2536],confirmed screening hit (RFP induction in REDS3 screen),REDS3 cells; 24 hours,part of this group
"Cc1sc2c(c1C)C(c1ccc(Cl)cc1)=N[C@@H](CC(=O)OC(C)(C)C)c1nnc(C)n1-2 [(S)-JQ1, reference compound]",cell viability with TAF1 downregulation,KBM7 cells,Downregulation of TAF1 decreased cell viability when (S)-JQ1 was used at concentrations not able to affect control cells
same,lowest concentration causing full activation of RFP signal,REDS3 cells; 24 hours,0.5 µM
same,confirmed screening hit (RFP induction in REDS3 screen),REDS3 cells; 24 hours,part of this group
same,RFP expression in REDS3 cells,REDS3 cells,clear and robust increase of RFP expression
same,number of cells in S-phase,THP1 cells [3],clear and dose-dependent decrease of the number of cells in S-phase
same,apoptosis (AnnexinV staining),THP1 cells [4],induced apoptosis
COc1cc2c(cc1-c1c(C)noc1C)ncc1[nH]c(=O)n([C@H](C)c3ccccn3)c12 [I-BET151],confirmed screening hit (RFP induction in REDS3 screen),REDS3 cells; 24 hours,part of this group
COc1ccc(NC(=O)c2cc(=O)n(C)c3ccccc23)cc1 [Compound 4-2],inhibition at 1 µM,TAF1(BD2) [1],9%
Cn1c(=O)cc(C(=O)Nc2ccc3c(c2)OCCO3)c2ccccc21 [Compound 4-1],IC50,TAF1(BD2) [5],0.25 µM
same,TAF1_BD2 (% inhibition at 1 μM),TAF1(BD2) [1],89%
